{"source": "paper PMC10113214", "about": "(Scientific Reports, 2023)", "key": {"[1]": {"test": "Circular dichroism, conformation and thermal stability of β-sheet", "assay_type": "physicochemical", "description": "The molar ellipticity of peptides were registered on a Jasco J-815 spectrometer (JASCO, Easton, MD, USA). Solutions of peptide hybrids were prepared in water solution (10 mg/ml), incubated at 37 °C for 4 h and then diluted to a final concentration of 0.20 mg/ml. CD spectra measurements were performed at 25 °C, 30 °C, 35 °C, 40 °C, 45 °C, 50 °C, 55 °C and 60 °C, at 190–260 nm wavelength and at a scan speed of […]. The background of the solvent was subtracted. The results are presented as the relationship of mean residue molar ellipticity (MRME) [deg × cm^2 × dmol^−1] to wavelength [nm]. Measurements were performed in triplicate. In order to determine the peptides’ denaturation temperatures, the molar ellipticity rotatory angle at a fixed wavelength of 196 nm, [θ]196, was measured as a function of temperature (max 100 °C). CD temperature measurements were carried out up to a temperature of 100 °C. Above this temperature, the cure was extrapolated with GraphPad Prism 8 software using the 4PL curve fit function. The denaturation temperature was determined as the temperature at which the change in ellipticity (θ) was half complete."}, "Rheology of hydrogels": {"test": "Rheology of hydrogels", "assay_type": "physicochemical", "conditions": "1% hydrogel, 37 °C", "description": "Rheological parameters of the hydrogels were identified using an MCR 302 rheometer (Anton Paar GmbH, Graz, Austria). The rheometer was equipped with a CP50-1 stainless steel cone-and-plate system of 50 mm diameter, 1° cone angle and 50 µm cone truncation and a Peltier controlled temperature unit. An aliquot of 900 µL of 1% hydrogel was applied to a plate cone. The linear viscoelastic (LVE) region was determined through an amplitude sweeps: shear strain (0.01–100% at 6 rad s^−1) and shear stress (0.001–10 Pa at 6.28 rad s^−1). Frequency sweep were measured from 0.01 to 100 rad s^−1 at 2.5% strain. The frequency dependence of the storage modulus (G’) and loss modulus (G”) of the hydrogels were measured at 37 °C. All experiments were carried out in triplicate and reported as the mean of three repeats."}, "[2]": {"test": "Transmission electron microscopy of nanofibres", "assay_type": "physicochemical", "conditions": "1% gel in PBS diluted to 0.001%, uranyl acetate stain", "description": "1% gel solutions were prepared and incubated in PBS. The samples were then diluted to 0.001% concentration. A drop of solution was applied to a microcellulose membrane and stained with a 1.5% solution of uranyl acetate. The images were registered on a Tecnai Spirit BioTwin FEI Transmission Electron Microscope operating at 120 kV."}, "[3]": {"biological_target": "T1, Human neutrophil elastase (Homo sapiens, UniProt P08246)", "T1 construct": "purchased Sigma-Aldrich", "T1 sequence (P08246 30-267)": "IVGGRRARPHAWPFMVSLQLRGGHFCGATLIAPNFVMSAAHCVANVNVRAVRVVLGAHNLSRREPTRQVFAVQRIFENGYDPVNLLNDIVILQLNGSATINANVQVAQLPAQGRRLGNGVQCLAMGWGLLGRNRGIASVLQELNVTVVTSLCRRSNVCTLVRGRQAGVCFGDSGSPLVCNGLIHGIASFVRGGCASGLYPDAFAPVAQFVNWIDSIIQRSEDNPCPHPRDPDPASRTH", "test": "Elastase enzymatic cleavage", "assay_type": "in vitro ADME", "conditions": "human neutrophil elastase 150 nM, peptide 1 mM, 30 min, 37 °C", "description": "Human neutrophil elastase (EC No. 3.4.21.37, Sigma-Aldrich) was used to study peptide susceptibility to that enzyme. Peptides were dissolved in 0.1 M Tris HCl, 500 mM NaCl, 0.05% Triton X-100, 20 mM CaCl2 pH 7.5 buffer mixture. Peptides (final concentration 1 mM) were mixed with the enzyme (final concentration 150 nM) and incubated for 30 min. in a thermoshaker (37 °C, 300 rpm). The reaction was stopped by a 10% aqueous solution of TFA. The results were analyzed using HPLC and MALDI or LC–MS. Details of this experiment are described in the Supplementary Data."}, "[4]": {"tested_on": "full-thickness excisional dorsal skin wounds", "test": "Skin wound healing model in mice", "assay_type": "in vivo, BALB/c mice", "conditions": "BALB/c female mice, 6.0 mm punch dorsal wounds, 10 µL 1% hydrogel topically daily for five days; n = 6, SD", "description": "Eight to ten-week-old BALB/c female mice were used for these experiments. All experimental procedures were approved by the Local Ethics Committee for Animal Experimentation in Bydgoszcz, Poland (Approval No. 49/2016). The study was conducted in compliance with the ARRIVE gudidelines. All animal handling methods were carried out in accordance with European Union Commission Recommendation of 18 June 2007 on guidelines for the accommodation and care of animals used for experimental and other scientific purposes. Before experiments, mice were randomized and divided into groups comprising six individuals. The mice were anaesthetized with inhaled 2–5% isoflurane. The skin on the dorsum was shaved and disinfected. After the skin was folded and raised cranially and caudally along the spine, the mouse was placed in a lateral position, and the folded skin was pierced with a 6.0 mm biopsy punch to make two through-and-through symmetrical wounds. Next, 10 µL of peptide hybrid hydrogel was applied onto each wound. Every gel was prepared in sterile conditions in biological safety cabinet, using sterile water to final concentration of 10 mg/ml (1%). Then the gels were incubated for 24 h allowing it to assemble. Control mice were treated with RADA16-I. The wounds were covered with a transparent Tegaderm TM dressing to protect the wound from outer environment of the cage and other animals. It was fastened with an adhesive plaster wrapped around the animal’s torso. The peptide hybrids were applied daily to the wounds for five consecutive days. The dressings were replaced daily in the first five days of the experiment and every second day until the end of the second week of the experiment. To measure the wound areas the wounds were photographed with a ruler placed next to the injury site. Wound areas were calculated using the computer-assisted image analysis program ImageJ[51]."}, "dorsal skin wounds": {"tested_on": "dorsal skin wounds", "test": "Histological evaluation of skin samples", "assay_type": "in vivo, BALB/c mice", "conditions": "Masson’s trichrome", "source_text": "Mice were sacrificed on day 18 post-injury. In addition, for investigation of early wound healing, 1 mouse from each group was sacrificed on day 4 post-injury. The skin samples were collected and stored in formalin. Skin samples embedded in paraffin were cut into 5 µm sections following staining with Masson’s trichrome (green: collagen, dermis; grey or dark grey: cell nuclei, epidermis, sebaceous glands; dark red: keratinized epidermis, muscle, hair; light red: red blood cells). Image acquisitions were made with a Leica DM IL microscope. To evaluate the collagen density in dorsal skin wounds, we employed the method of colour deconvolution described by Ruifrok and Johnston[52]. Using the ImageJ software with a colour deconvolution plug-in[53], we analyzed between 7 and 9 images of dorsal skin samples stained with Masson’ trichrome, representing 2–3 mice per group. The results are presented as mean relative collagen density."}, "[5]": {"tested_on": "Human neutrophil elastase (EC No. 3.4.21.37, Sigma-Aldrich)", "test": "Human neutrophil elastase (final concentration 150 nM) in 0.1 M Tris HCl, 500 mM NaCl, 0.05% Triton X-100, 20 mM CaCl2 pH 7.5 buffer mixture", "conditions": "37 °C, up to 30 min."}}, "note": "“Also recorded” adds a separate entry of the source."}
{"compound": "CC(=O)N[C@@H](CCCNC(=N)N)C(=O)N[C@@H](C)C(=O)N[C@@H](CC(=O)O)C(=O)N[C@@H](C)C(=O)N[C@@H](CCCNC(=N)N)C(=O)N[C@@H](C)C(=O)N[C@@H](CC(=O)O)C(=O)N[C@@H](C)C(=O)N[C@@H](CCCNC(=N)N)C(=O)N[C@@H](C)C(=O)N[C@@H](CC(=O)O)C(=O)N[C@@H](C)C(=O)N[C@@H](CCCNC(=N)N)C(=O)N[C@@H](C)C(=O)N[C@@H](CC(=O)O)C(=O)N[C@@H](C)C(N)=O", "note": "[RADA16-I, Ac-(Arg-Ala-Asp-Ala)4-NH2]", "values": [{"measurement": "heat stability of β-sheet structure (rank)", "setting": "[1]; CD scans at different temperatures", "result": "lowest stability of β-sheet structure"}]}
{"compound": "CC(=O)N[C@@H](CCCNC(=N)N)C(=O)N[C@@H](C)C(=O)N[C@@H](CC(=O)O)C(=O)N[C@@H](C)C(=O)N[C@@H](CCCNC(=N)N)C(=O)N[C@@H](C)C(=O)N[C@@H](CC(=O)O)C(=O)N[C@@H](C)C(=O)N[C@@H](CCCNC(=N)N)C(=O)N[C@@H](C)C(=O)N[C@@H](CC(=O)O)C(=O)N[C@@H](C)C(=O)N[C@@H](CCCNC(=N)N)C(=O)N[C@@H](C)C(=O)N[C@@H](CC(=O)O)C(=O)N[C@@H](C)C(=O)NCC(=O)NCC(=O)NCC(=O)N[C@@H](C)C(=O)N[C@@H](C)C(=O)N1CCC[C@H]1C(=O)N[C@H](C(=O)NCC(=O)NCC(=O)NCC(=O)N[C@@H](CCCNC(=N)N)C(=O)N[C@@H](CC(=O)O)C(=O)N[C@@H](CCCCN)C(=O)N[C@H](C(=O)N[C@@H](Cc1ccc(O)cc1)C(=O)N[C@@H](CCCNC(=N)N)C(N)=O)C(C)C)C(C)C", "note": "[RADA-IM, Ac-(Arg-Ala-Asp-Ala)4-Gly-Gly-Gly-Ala-Ala-Pro-Val-Gly-Gly-Gly-Arg-Asp-Lys-Val-Tyr-Arg-NH2]", "values": [{"measurement": "magnitude of G’ compared with other gels", "setting": "Rheology of hydrogels; cone-plate, frequency sweep, mean of three repeats", "result": "around one-tenth of these values"}, {"measurement": "shear strain above which the gel behaves like a liquid (G” > G’)", "setting": "Rheology of hydrogels; strain sweep, ω = 6.28 rad/s", "result": "above 30%"}, {"measurement": "temperature of first disruption of the β-sheets", "setting": "[1]; CD, [θ]196 nm as function of temperature 4–100 °C, gel 10 mg/ml in water, 37 °C 4 h, diluted to 0.20 mg/ml, decrease of molar ellipticity", "result": "~52", "unit": "°C"}, {"measurement": "transition temperature (half β-conformation, half disordered)", "setting": "[1]; CD, [θ]196 nm vs temperature, 0.20 mg/ml in water, above 100 °C curve extrapolated, 4PL fit", "result": 95, "unit": "°C"}, {"measurement": "fibre thickness (TEM)", "setting": "[2]", "result": "6–8 nm"}, {"measurement": "identified fragments of peptides after elastase digestion (most abundant MS signals)", "setting": "[3]; 300 rpm, 0.1 M Tris HCl, 500 mM NaCl, 0.05% Triton X-100, 20 mM CaCl2 pH 7.5, HPLC and MALDI or LC-MS, fragment Ac-(RADA)4-GGG-AAPV-COOH", "result": "Ac-(RADA)4-GGG-AAPV-COOH"}, {"measurement": "main / predominant fragments of elastase digestion", "setting": "[3]; pH 7.5 buffer, HPLC, mass spectrometry", "result": "Gly^24Gly^25Gly^26Arg^27Asp^28Lys^29Val^30Tyr^31Arg^32"}, {"measurement": "wound closure on day 7", "setting": "[4]", "result": "16.2 ± 21.1", "unit": "%"}, {"measurement": "collagen density on day 18 post-injury", "setting": "dorsal skin wounds; colour deconvolution, 7–9 images, 2–3 mice per group", "result": "statistically significant lower collagen density than the RADA16-I sample"}, {"measurement": "hair follicles in wound area on day 18", "setting": "dorsal skin wounds; day 18 post-injury", "result": "many hair follicles could be observed"}, {"measurement": "epithelium (membrane-like structure) thickness on day 4 post-injury", "setting": "dorsal skin wounds; versus RADA16-I group, Mann–Whitney U test", "result": "significantly thicker epithelium"}]}
{"compound": "Ac-(Arg-Ala-Asp-Ala)4-Gly-Gly-Gly-Ala-Ala-Pro-Val-Gly-Gly-Gly-Arg-Asp-Lys-Val-Tyr-Arg-NH2", "values": [{"measurement": "cleaved bond", "setting": "[5]", "result": "Val23-Gly24, major; also recorded: Gly24-Gly25, major"}]}
{"compound": "Ac-(Arg-Ala-Asp-Ala)4-Gly-Gly-Gly-Ala-Ala-Pro-Val-Gly-Gly-Gly-His-Lys-NH2", "values": [{"measurement": "cleaved bond", "setting": "[5]", "result": "Val23-Gly24; also recorded: Gly25-Gly26, major"}]}
{"compound": "Ac-(Arg-Ala-Asp-Ala)4-Gly-Gly-Gly-Ala-Ala-Pro-Val-Gly-Gly-Gly-Lys-Gly-His-Lys-NH2", "values": [{"measurement": "cleaved bond", "setting": "[5]", "result": "Val23-Gly24; also recorded: Ala21-Pro22, major; also recorded: Ala20-Ala21, major"}]}
